The values below come from patent US20240415819A1, “MACROCYCLIC COMPOUNDS AS PROTEASOME SUBUNIT BETA TYPE-5 INHIBITORS” (Lead Discovery Center GmbH, priority 2021, published 2024).

The target in experiment [1] is T1, β5 subunit of the human immunoproteasome (IPS) (Homo sapiens, UniProt P28062).
T1 construct: purchased Boston Biochem E-370
The experiment in a line: β5 inhibition assay, human immunoproteasome (Suc-LLVY-AMC). The format is biochemical. As to conditions: IC50 class, Suc-LLVY-AMC substrate. In outline: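 Human immunoproteasome (1 nM final) was preincubated 10 min at RT with compound in 100 mM HEPES pH 7.5, 50 mM NaCl, 0.02% SDS, 1 mM DTT. Suc-LLVY-AMC (22.6 μM final) was then added for 4 h at RT in the dark. After stopping with 1 μM bortezomib, AMC fluorescence was read (ex 355/em 460 nm).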

Experiment [2] deals with HT-29 cells. The experiment in a line: CellTiter-Glo luminescent cell viability assay with HT-29 cells (72h incubation). The conditions noted are these: Homo sapiens, HT-29, HT29 cells, read-out: CTG HT29. It counts as cell-based, human. The essentials:
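400 cells per well in DMEM/10% FCS were dosed after 24 h and kept 72 h at 37 °C, 5% CO2. ATP-based luminescence (CellTiter-Glo) normalized to DMSO and 10 μM staurosporine controls; IC50 by dose-response fit.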
In general terms: Cellular ATP, detected with luciferase, serves as a proxy for viable cell number.

Where only a bound is given, the exact number is not on record here.

For the compound `Cc1ccc2cc1CNC(=O)[C@H](CCc1ccccc1)NC(=O)[C@@H](NC(=O)OCc1ccccc1)CC(=O)N1CCCC(CCO2)C1` (stereo partly drawn) [Compound 7, benzyl ((9S,12S)-5^4-methyl-8,11,14-trioxo-9-phenethyl-4-oxa-7,10-diaza-1(3,1)-piperidina-5(1,3)-benzenacyclotetradecaphane-12-yl)carbamate], the IC50 in experiment [1] and in experiment [2] was below 100 nM each time.

Regarding `Cc1ccc2cc1CNC(=O)[C@H](CCc1ccccc1)NC(=O)[C@@H](NC(=O)CC(C)(C)C)CC(=O)N1CCCC(CCO2)C1` (stereo partly drawn) [Compound 28, 3,3-dimethyl-N-((9S,12S)-5^4-methyl-8,11,14-trioxo-9-phenethyl-4-oxa-7,10-diaza-1(3,1)-piperidina-5(1,3)-benzenacyclotetradecaphane-12-yl)butanamide], the IC50 in experiment [1] and in experiment [2] was below 100 nM each time.

For `Cc1ccc2cc1CNC(=O)[C@H](CCc1ccccc1)NC(=O)[C@@H](NC(=O)OCc1ccccc1)CCCC(=O)N1CCCC3(CC(C3)O2)C1` [Compound 283, benzyl ((7S,10S)-34-methyl-6,9,14-trioxo-7-phenethyl-2-oxa-5,8-diaza-15(3,1)-piperidina-3(1,3)-benzena-1(1,3)-cyclobutanapentadecaphane-10-yl)carbamate], the IC50 in experiment [1] was below 100 nM; in experiment [2] it was 100 to 500 nM.

As for `CC(=O)N[C@H]1CCCC(=O)N(C)CCCCOc2ccc(C)c(c2)CNC(=O)[C@H](CCc2ccccc2)NC1=O` [Compound 295, N-(1^4,7-dimethyl-8,13,16-trioxo-15-phenethyl-2-oxa-7,14,17-triaza-1(1,3)-benzenacyclooctadecaphane-12-yl)acetamide], the IC50 in experiment [1] and in experiment [2] was below 100 nM in each case.

On to `CC(=O)N[C@H]1CC(=O)N(C)CCCCOc2ccc(C)c(c2)CNC(=O)[C@H](CCc2ccccc2)NC1=O` [Compound 296, N-(1^4,7-dimethyl-8,11,14-trioxo-13-phenethyl-2-oxa-7,12,15-triaza-1(1,3)-benzenacyclohexadecaphane-10-yl)acetamide], for which the IC50 in experiment [1] and in experiment [2] was 100 to 500 nM throughout.

In the case of `CC(=O)N[C@H]1CCC(=O)N2CC3CC(Oc4ccc(C)c(c4)CNC(=O)[C@H](CCc4ccccc4)NC1=O)C3C2` (some centres unmarked) [Compound 299, N-(3^4-methyl-6,9,13-trioxo-7-phenethyl-2-oxa-13,5,8-triaza-1(6,3)-bicyclo[3.2.0]heptana-3(1,3)-benzenacyclotridecaphane-10-yl)acetamide], the IC50 in experiment [1] lay within 500 to 1000 nM; in experiment [2] it was 100 to 500 nM.

In the case of `Cc1ccc2cc1CNC(=O)[C@H](CCc1ccccc1)NC(=O)[C@@H](NC(=O)OCc1ccccc1)CC(=O)N1CCCC3(CC(C3)O2)C1` [Compound 300], the IC50 in experiment [1] was below 100 nM; in experiment [2], 100 to 500 nM.

In the case of `Cc1ccc2cc1CNC(=O)[C@H](CCc1ccccc1)NC(=O)[C@@H](NC(=O)OCc1ccccc1)CCC(=O)N1CCCC3(CC(C3)O2)C1` [Compound 301, benzyl ((7S,10S)-3^4-methyl-6,9,13-trioxo-7-phenethyl-2-oxa-5,8-diaza-14(3,1)-piperidina-3(1,3)-benzena-1(1,3)-cyclobutanatetradecaphane-10-yl)carbamate], the IC50 fell in the range of 500 to 1000 nM in experiment [1] and 100 to 500 nM in experiment [2].

Consider `Cc1ccc2cc1CNC(=O)[C@H](CCc1ccccc1)NC(=O)[C@@H](NC(=O)Cc1csc(N)n1)CC(=O)N1CCCC(CCO2)C1` (stereo partly drawn) [Compound 302, 2-(2-aminothiazol-4-yl)-N-((9S,12S)-5^4-methyl-8,11,14-trioxo-9-phenethyl-4-oxa-7,10-diaza-1(3,1)-piperidina-5(1,3)-benzenacyclotetradecaphane-12-yl)acetamide], for which the IC50 in experiment [1] and in experiment [2] was below 100 nM each time.

For the compound `Cc1ccc2cc1CNC(=O)[C@H](CCc1ccccc1)NC(=O)[C@@H](NC(=O)C(C)c1ccc(N)cc1)CC(=O)N1CCCC(CCO2)C1` (stereo partly drawn) [Compound 309, 2-(4-aminophenyl)-N-((9S,12S)-5^4-methyl-8,11,14-trioxo-9-phenethyl-4-oxa-7,10-diaza-1(3,1)-piperidina-5(1,3)-benzenacyclotetradecaphane-12-yl)propanamide], the IC50 in experiment [1] and in experiment [2] was below 100 nM each time.

In the case of `Cc1ccc2cc1CNC(=O)[C@H](CCc1ccccc1)NC(=O)[C@@H](NC(=O)Cc1nnc(N)s1)CC(=O)N1CCCC(CCO2)C1` (stereo partly drawn) [Compound 310, 2-(5-amino-1,3,4-thiadiazol-2-yl)-N-((9S,12S)-54-methyl-8,11,14-trioxo-9-phenethyl-4-oxa-7,10-diaza-1(3,1)-piperidina-5(1,3)-benzenacyclotetradecaphane-12-yl)acetamide], the IC50 in experiment [1] and in experiment [2] was below 100 nM each time.

`Cc1ccc2cc1CNC(=O)[C@H](CCc1ccccc1)NC(=O)[C@@H](NC(=O)Cc1cnc(N)s1)CC(=O)N1CCCC(CCO2)C1` (stereo partly drawn) [Compound 311, 2-(2-aminothiazol-5-yl)-N-((9S,12S)-5^4-methyl-8,11,14-trioxo-9-phenethyl-4-oxa-7,10-diaza-1(3,1)-piperidina-5(1,3)-benzenacyclotetradecaphane-12-yl)acetamide]: the IC50 in experiment [1] and in experiment [2] was below 100 nM throughout.

In the case of `Cc1ccc2cc1CNC(=O)[C@H](CCc1ccccc1)NC(=O)[C@@H](NC(=O)OCc1ccccc1)CC(=O)N1CC(CCO2)CC2CCCCC21` (stereo partly drawn) [Compound 314, benzyl ((9S,12S)-5^4-methyl-8,11,14-trioxo-9-phenethyl-11,12,13,14,14a,15,16,17,18,18a-decahydro-4-oxa-7,10-diaza-1(3,1)-quinolina-5(1,3)-benzenacyclotetradecaphane-12-yl)carbamate], the IC50 in experiment [1] and in experiment [2] was below 100 nM throughout.

Regarding `Cc1ccc2cc1CNC(=O)[C@H](CCc1ccccc1)NC(=O)[C@@H](NC(=O)Cc1cc(Cl)c(N)c(Cl)c1)CC(=O)N1CCCC(CCO2)C1` (stereo partly drawn) [Compound 320, 2-(4-amino-3,5-dichlorophenyl)-N-((9S,12S)-5^4-methyl-8,11,14-trioxo-9-phenethyl-4-oxa-7,10-diaza-1(3,1)-piperidina-5(1,3)-benzenacyclotetradecaphane-12-yl)acetamide], the IC50 in experiment [1] and in experiment [2] was below 100 nM each time.

In the case of `Cc1ccc2cc1CNC(=O)[C@H](CCc1ccccc1)NC(=O)[C@@H](NC(=O)OCc1ccccc1)CCCC(=O)NCCCCO2` [Compound 322, benzyl ((12S,15S)-1^4-methyl-8,13, 16-trioxo-15-phenethyl-2-oxa-7,14,17-triaza-1(1,3)-benzenacyclooctadecaphane-12-yl)carbamate], the IC50 in experiment [1] is below 100 nM; in experiment [2], 100 to 500 nM.

Regarding `COC(C(=O)N[C@H]1CC(=O)N2CCCC(CCOc3ccc(C)c(c3)CNC(=O)[C@H](CCc3ccccc3)NC1=O)C2)c1ccc(N)cc1` (stereo partly drawn) [Compound 326, 2-(4-aminophenyl)-2-methoxy-N-((9S,12S)-5^4-methyl-8,11,14-trioxo-9-phenethyl-4-oxa-7,10-diaza-1(3,1)-piperidina-5(1,3)-benzenacyclotetradecaphane-12-yl)acetamide], the IC50 in experiment [1] and in experiment [2] was below 100 nM in each case.
